Measured values published in patent publication US10004701B2, “Methods and compositions for treating infection” (UNIVERSITY OF ROCHESTER, priority 2012, dated 2018).
Where a name gives a salt, the structure may show the parent alone. Read-outs that look alike come from different tables or passages of the source.

Experiments:
Assay in all cases: AK assay 384-well format, Prestwick library screening
K. pneumoniae = format: cell-based, Klebsiella pneumoniae; conditions: 50 μM final drug concentration; for fold induction at 50 µM: Klebsiella pneumoniae, 3 h
E. faecium = format: cell-based, Enterococcus faecium; conditions: 50 μM final drug concentration; for fold induction at 50 µM: Enterococcus faecium, 3 h
P. aeruginosa = format: cell-based, Pseudomonas aeruginosa; conditions: 50 μM final drug concentration; for fold induction at 50 µM: Pseudomonas aeruginosa, 3 h
E. cloacae = format: cell-based, Enterobacter cloacae; conditions: 50 μM final drug concentration; for fold induction at 50 µM: Enterobacter cloacae, 3 h
E. coli = format: cell-based, Escherichia coli; conditions: 50 μM final drug concentration; for fold induction at 50 µM: Escherichia coli, 3 h
[1] = test system: A. baumannii strain 98-37-09; format: cell-based, Acinetobacter baumannii; conditions: 50 μM final drug concentration; for fold induction at 50 µM: Acinetobacter baumannii, 983709, 3 h
[2] = test system: S. aureus strain USA300-0114; format: cell-based, Staphylococcus aureus; conditions: 50 μM final drug concentration; for fold induction at 50 µM: Staphylococcus aureus, USA300, 3 h
[3] = planktonic, […], read-out: AK-based Prestwick Library Screening Results, K. pneumoniae (fold increase in extracellular AK activity)
[4] = planktonic, […], read-out: AK-based Prestwick Library Screening Results, E. faecium (fold increase in extracellular AK activity)
[5] = planktonic, […], read-out: AK-based Prestwick Library Screening Results, P. aeruginosa (fold increase in extracellular AK activity)
[6] = planktonic, […], read-out: AK-based Prestwick Library Screening Results, E. cloacae (fold increase in extracellular AK activity)
[7] = planktonic, […], read-out: AK-based Prestwick Library Screening Results, E. coli (fold increase in extracellular AK activity)
[8] = planktonic, […], read-out: AK-based Prestwick Library Screening Results, A. baumannii (fold increase in extracellular AK activity)
[9] = planktonic, […], read-out: AK-based Prestwick Library Screening Results, S. aureus (fold increase in extracellular AK activity)
[10] = planktonic, cutoff for positive-scoring molecules 3-fold increase, read-out: AK-based Prestwick Library Screening Results, K. pneumoniae (fold increase in extracellular AK activity)
[11] = planktonic, cutoff for positive-scoring molecules 3-fold increase, read-out: AK-based Prestwick Library Screening Results, E. faecium (fold increase in extracellular AK activity)
[12] = planktonic, cutoff for positive-scoring molecules 3-fold increase, read-out: AK-based Prestwick Library Screening Results, P. aeruginosa (fold increase in extracellular AK activity)
[13] = planktonic, cutoff for positive-scoring molecules 3-fold increase, read-out: AK-based Prestwick Library Screening Results, E. cloacae (fold increase in extracellular AK activity)
[14] = planktonic, cutoff for positive-scoring molecules 3-fold increase, read-out: AK-based Prestwick Library Screening Results, A. baumannii (fold increase in extracellular AK activity)
[15] = planktonic, cutoff for positive-scoring molecules 3-fold increase, read-out: AK-based Prestwick Library Screening Results, S. aureus (fold increase in extracellular AK activity)
[16] = planktonic, cutoff for positive 3-fold increase
[17] = 384-well format, cutoff for positive-scoring molecules 3-fold increase

CO[C@H](C)[C@](O)(C(=O)OCC1=CCN2CC[C@H](O)[C@@H]12)C(C)C [Heliotrine]
fold induction at 50 µM (K. pneumoniae; [3]): 1 | fold induction at 50 µM (E. faecium; [4]): 1 | fold induction at 50 µM (P. aeruginosa; [5]): 1 | fold induction at 50 µM (E. cloacae; [6]): 1.7 | fold induction at 50 µM (E. coli; [7]): 1.2 | fold induction at 50 µM [1, 8]: 1 | fold induction at 50 µM [2, 9]: 1.4

O=C(Cn1ccnc1[N+](=O)[O-])NCCO [Etanidazole]
fold induction at 50 µM (K. pneumoniae; [10]): 0.5 | fold induction at 50 µM (E. faecium; [11]): 0.8 | fold induction at 50 µM (P. aeruginosa; [12]): 0.4 | fold induction at 50 µM (E. cloacae; [13]): 0.4 | fold induction at 50 µM (E. coli; planktonic, cutoff for positive-scoring molecules 3-fold increase, read-out: AK-based Prestwick Library Screening Results, E. coli (fold increase in extracellular AK activity)): 0.5 | fold induction at 50 µM [1, 14]: 0.5 | fold induction at 50 µM [2, 15]: 0.4

CC(=O)NC1[C@@H](O)OC(CO)[C@@H](O)[C@H]1O[C@H](C)C(=O)O (stereo in doubt) [Muramic acid, N-acetyl]
AK-based Prestwick Library Screening Results, K. pneumoniae (fold increase in extracellular AK activity) (K. pneumoniae; [16]): 1.0 | AK-based Prestwick Library Screening Results, E. faecium (fold increase in extracellular AK activity) (E. faecium; [16]): 1.0 | AK-based Prestwick Library Screening Results, P. aeruginosa (fold increase in extracellular AK activity) (P. aeruginosa; [16]): 1.1 | AK-based Prestwick Library Screening Results, E. cloacae (fold increase in extracellular AK activity) (E. cloacae; [16]): 1.4 | AK-based Prestwick Library Screening Results, E. coli (fold increase in extracellular AK activity) (E. coli; [16]): 1.1 | AK-based Prestwick Library Screening Results, A. baumannii (fold increase in extracellular AK activity) [1, 16]: 1.5 | AK-based Prestwick Library Screening Results, S. aureus (fold increase in extracellular AK activity) [2, 16]: 1.0

c1ccc(CNc2ncnc3[nH]cnc23)cc1 [Aminopurine, 6-benzyl]
AK-based Prestwick Library Screening Results, K. pneumoniae (increase in extracellular AK activity) (K. pneumoniae; [17]): 0.8 | AK-based Prestwick Library Screening Results, E. faecium (increase in extracellular AK activity) (E. faecium; [17]): 0.9 | AK-based Prestwick Library Screening Results, P. aeruginosa (increase in extracellular AK activity) (P. aeruginosa; [17]): 0.9 | AK-based Prestwick Library Screening Results, E. cloacae (increase in extracellular AK activity) (E. cloacae; [17]): 1.1 | AK-based Prestwick Library Screening Results, E. coli (increase in extracellular AK activity) (E. coli; [17]): 0.9 | AK-based Prestwick Library Screening Results, A. baumannii (increase in extracellular AK activity) [1, 17]: 0.8 | AK-based Prestwick Library Screening Results, S. aureus (increase in extracellular AK activity) [2, 17]: 0.7

CC[C@H]1OC(=O)[C@H](C)[C@@H](O[C@H]2C[C@@](C)(OC)[C@@H](O)[C@H](C)O2)[C@H](C)[C@@H](O[C@@H]2O[C@H](C)C[C@H](N(C)C)[C@H]2O)[C@](C)(O)C[C@@H](C)[C@@H]2N[C@@H](COCCOC)O[C@H]([C@H]2C)[C@]1(C)O [Dirithromycin]
fold induction at 50 µM (K. pneumoniae; planktonic, cutoff for positive 3-fold increase, read-out: AK-based Prestwick Library Screening Results, K. pneumoniae (fold increase in extracellular AK activity)): 1.2 | fold induction at 50 µM (E. faecium; planktonic, cutoff for positive 3-fold increase, read-out: AK-based Prestwick Library Screening Results, E. faecium (fold increase in extracellular AK activity)): 1.2 | fold induction at 50 µM (P. aeruginosa; planktonic, cutoff for positive 3-fold increase, read-out: AK-based Prestwick Library Screening Results, P. aeruginosa (fold increase in extracellular AK activity)): 0.9 | fold induction at 50 µM (E. cloacae; planktonic, cutoff for positive 3-fold increase, read-out: AK-based Prestwick Library Screening Results, E. cloacae (fold increase in extracellular AK activity)): 1.5 | fold induction at 50 µM (E. coli; planktonic, cutoff for positive 3-fold increase, read-out: AK-based Prestwick Library Screening Results, E. coli (fold increase in extracellular AK activity)): 1.1 | fold induction at 50 µM ([1]; planktonic, cutoff for positive 3-fold increase, read-out: AK-based Prestwick Library Screening Results, A. baumannii (fold increase in extracellular AK activity)): 1.8 | fold induction at 50 µM ([2]; planktonic, cutoff for positive 3-fold increase, read-out: AK-based Prestwick Library Screening Results, S. aureus (fold increase in extracellular AK activity)): 2.1

CCN1CCC[C@H]1CNC(=O)c1c(OC)ccc(Br)c1OC [Remoxipride Hydrochloride]
fold induction at 50 µM (K. pneumoniae; cutoff for positive-scoring molecules 3-fold increase, read-out: AK-based Prestwick Library Screening Results, K. pneumoniae (fold increase in extracellular AK activity)): 0.6 | fold induction at 50 µM (E. faecium; cutoff for positive-scoring molecules 3-fold increase, read-out: AK-based Prestwick Library Screening Results, E. faecium (fold increase in extracellular AK activity)): 0.9 | fold induction at 50 µM (P. aeruginosa; cutoff for positive-scoring molecules 3-fold increase, read-out: AK-based Prestwick Library Screening Results, P. aeruginosa (fold increase in extracellular AK activity)): 0.7 | fold induction at 50 µM (E. cloacae; cutoff for positive-scoring molecules 3-fold increase, read-out: AK-based Prestwick Library Screening Results, E. cloacae (fold increase in extracellular AK activity)): 0.8 | fold induction at 50 µM (E. coli; cutoff for positive-scoring molecules 3-fold increase, read-out: AK-based Prestwick Library Screening Results, E. coli (fold increase in extracellular AK activity)): 0.7 | fold induction at 50 µM ([1]; cutoff for positive-scoring molecules 3-fold increase, read-out: AK-based Prestwick Library Screening Results, A. baumannii (fold increase in extracellular AK activity)): 0.7 | fold induction at 50 µM ([2]; cutoff for positive-scoring molecules 3-fold increase, read-out: AK-based Prestwick Library Screening Results, S. aureus (fold increase in extracellular AK activity)): 0.6

O=c1cc(-c2ccc(O)cc2)oc2c([C@@H]3O[C@H](CO)[C@@H](O)[C@H](O)[C@H]3O)c(O)cc(O)c12 [Vitexin]
fold induction at 50 µM (K. pneumoniae; [10]): 0.8 | fold induction at 50 µM (E. faecium; [11]): 1 | fold induction at 50 µM (P. aeruginosa; [12]): 0.8 | fold induction at 50 µM (E. cloacae; [13]): 0.8 | fold induction at 50 µM (E. coli; [7]): 0.8 | fold induction at 50 µM [1, 14]: 0.7 | fold induction at 50 µM [2, 15]: 0.7

C[C@H]1O[C@@H](O[C@H]2[C@@H](O)C[C@H](O[C@H]3[C@@H](O)C[C@H](O[C@H]4CC[C@@]5(C)[C@H](CC[C@@H]6[C@@H]5C[C@@H](O)[C@]5(C)[C@@H](C7=CC(=O)OC7)CC[C@]65O)C4)O[C@@H]3C)O[C@@H]2C)C[C@H](O)[C@@H]1O [Digoxin]
fold induction at 50 µM (K. pneumoniae; planktonic K. pneumoniae, […], read-out: AK-based Prestwick Library Screening Results, K. pneumoniae (increase in extracellular AK activity)): 0.7 | fold induction at 50 µM (E. faecium; planktonic E. faecium, […], read-out: AK-based Prestwick Library Screening Results, E. faecium (increase in extracellular AK activity)): 0.9 | fold induction at 50 µM (P. aeruginosa; planktonic P. aeruginosa, […], read-out: AK-based Prestwick Library Screening Results, P. aeruginosa (increase in extracellular AK activity)): 0.8 | fold induction at 50 µM (E. cloacae; planktonic E. cloacae, […], read-out: AK-based Prestwick Library Screening Results, E. cloacae (increase in extracellular AK activity)): 1.2 | fold induction at 50 µM (E. coli; planktonic E. coli, […], read-out: AK-based Prestwick Library Screening Results, E. coli (increase in extracellular AK activity)): 0.8 | fold induction at 50 µM ([1]; planktonic A. baumannii, […], read-out: AK-based Prestwick Library Screening Results, A. baumannii (increase in extracellular AK activity)): 0.9 | fold induction at 50 µM ([2]; planktonic S. aureus, […], read-out: AK-based Prestwick Library Screening Results, S. aureus (increase in extracellular AK activity)): 0.8

CNC[C@H](O)[C@@H](O)[C@H](O)[C@H](O)CO [Meglumine]
fold induction at 50 µM (K. pneumoniae; [3]): 0.7 | fold induction at 50 µM (E. faecium; [4]): 0.8 | fold induction at 50 µM (P. aeruginosa; [5]): 0.5 | fold induction at 50 µM (E. cloacae; [6]): 0.6 | fold induction at 50 µM (E. coli; [7]): 0.5 | fold induction at 50 µM [1, 8]: 0.5 | fold induction at 50 µM [2, 9]: 0.5
